# Assay results as given in PubChem BioAssay (NCI).
#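 These data come from cells grown in 96-well plates and exposed to compound for 48 hours at five concentrations. Here, GI50 denotes the concentration required for 50% inhibition of growth. TGI denotes the concentration required for complete inhibition of growth.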
# Columns and labels:
# Assay in all cases: inhibition of tumour cell growth, NCI panel, 48 h
# 786-0 renal = system: 786-0 renal
# A498 renal = system: A498 renal
# A549 NSCLC = system: A549 NSCLC
# ACHN renal = system: ACHN renal
# BT-549 breast = system: BT-549 breast
# CAKI-1 renal = system: CAKI-1 renal
# CCRF-CEM leukemia = system: CCRF-CEM leukemia
# COLO 205 colon = system: COLO 205 colon
# DU-145 prostate = system: DU-145 prostate
# HCC-2998 colon = system: HCC-2998 colon
# HCT-116 colon = system: HCT-116 colon
# HCT-15 colon = system: HCT-15 colon
# HL-60(TB) leukemia = system: HL-60(TB) leukemia
# HOP-62 NSCLC = system: HOP-62 NSCLC
# HS 578T breast = system: HS 578T breast
# HT29 colon = system: HT29 colon
# IGROV1 ovarian = system: IGROV1 ovarian
# K-562 leukemia = system: K-562 leukemia
# KM12 colon = system: KM12 colon
# LOX IMVI melanoma = system: LOX IMVI melanoma
# MALME-3M melanoma = system: MALME-3M melanoma
# MCF7 breast = system: MCF7 breast
# MDA-MB-231 breast = system: MDA-MB-231 breast
# MOLT-4 leukemia = system: MOLT-4 leukemia
# NCI-H226 lung = system: NCI-H226 lung
# NCI-H23 lung = system: NCI-H23 lung
# NCI-H460 lung = system: NCI-H460 lung
# NCI-H522 lung = system: NCI-H522 lung
# NCI/ADR-RES ovarian = system: NCI/ADR-RES ovarian
# OVCAR-3 ovarian = system: OVCAR-3 ovarian
# OVCAR-4 ovarian = system: OVCAR-4 ovarian
# OVCAR-5 ovarian = system: OVCAR-5 ovarian
# OVCAR-8 ovarian = system: OVCAR-8 ovarian
# PC-3 prostate = system: PC-3 prostate
# RPMI-8226 leukemia = system: RPMI-8226 leukemia
# RXF 393 renal = system: RXF 393 renal
# SF-268 CNS = system: SF-268 CNS
# SF-295 CNS = system: SF-295 CNS
# SF-539 CNS = system: SF-539 CNS
# SK-MEL-2 melanoma = system: SK-MEL-2 melanoma
# SK-MEL-28 melanoma = system: SK-MEL-28 melanoma
# SK-MEL-5 melanoma = system: SK-MEL-5 melanoma
# SK-OV-3 ovarian = system: SK-OV-3 ovarian
# SN12C renal = system: SN12C renal
# SNB-19 CNS = system: SNB-19 CNS
# SNB-75 CNS = system: SNB-75 CNS
# SR leukemia = system: SR leukemia
# SW-620 colon = system: SW-620 colon
# T-47D breast = system: T-47D breast
# U251 CNS = system: U251 CNS
# UACC-257 melanoma = system: UACC-257 melanoma
# UACC-62 melanoma = system: UACC-62 melanoma
# UO-31 renal = system: UO-31 renal
smiles,measurement,setting,value
COc1cc(-c2cc(-c3cc(OC)c(OC)c(OC)c3)nc3nc(N)[nH]c(=O)c23)ccc1Oc1ccnc2cc(Cl)ccc12,GI50,786-0 renal,3.86 µM
same,TGI,786-0 renal,> 100 µM
same,GI50,A498 renal,16.3 µM
same,TGI,A498 renal,86.4 µM
same,GI50,A549 NSCLC,2.84 µM
same,TGI,A549 NSCLC,> 100 µM
same,GI50,ACHN renal,2.89 µM
same,TGI,ACHN renal,82.7 µM
same,GI50,BT-549 breast,2.91 µM
same,TGI,BT-549 breast,20.8 µM
same,GI50,CAKI-1 renal,2.7 µM
same,TGI,CAKI-1 renal,> 100 µM
same,GI50,CCRF-CEM leukemia,2.66 µM
same,TGI,CCRF-CEM leukemia,> 100 µM
same,GI50,COLO 205 colon,12.9 µM
same,TGI,COLO 205 colon,30 µM
same,GI50,DU-145 prostate,3.51 µM
same,TGI,DU-145 prostate,> 100 µM
same,GI50,HCC-2998 colon,3.14 µM
same,TGI,HCC-2998 colon,11.3 µM
same,GI50,HCT-116 colon,1.29 µM
same,TGI,HCT-116 colon,22.2 µM
same,GI50,HCT-15 colon,0.457 µM
same,TGI,HCT-15 colon,24.4 µM
same,GI50,HL-60(TB) leukemia,2.45 µM
same,TGI,HL-60(TB) leukemia,8.22 µM
same,GI50,HOP-62 NSCLC,2.35 µM
same,TGI,HOP-62 NSCLC,16.7 µM
same,GI50,HS 578T breast,3.1 µM
same,TGI,HS 578T breast,> 100 µM
same,GI50,HT29 colon,10.5 µM
same,TGI,HT29 colon,25.4 µM
same,GI50,IGROV1 ovarian,4.49 µM
same,TGI,IGROV1 ovarian,> 100 µM
same,GI50,K-562 leukemia,0.379 µM
same,TGI,K-562 leukemia,> 100 µM
same,GI50,KM12 colon,0.548 µM
same,TGI,KM12 colon,14.9 µM
same,GI50,LOX IMVI melanoma,1.27 µM
same,TGI,LOX IMVI melanoma,19.8 µM
same,GI50,MALME-3M melanoma,3.5 µM
same,TGI,MALME-3M melanoma,> 100 µM
same,GI50,MCF7 breast,0.762 µM
same,TGI,MCF7 breast,> 100 µM
same,GI50,MDA-MB-231 breast,2.59 µM
same,TGI,MDA-MB-231 breast,24.7 µM
same,GI50,MOLT-4 leukemia,2.78 µM
same,TGI,MOLT-4 leukemia,> 100 µM
same,GI50,NCI-H226 lung,13.4 µM
same,TGI,NCI-H226 lung,35.9 µM
same,GI50,NCI-H23 lung,3.43 µM
same,TGI,NCI-H23 lung,24.9 µM
same,GI50,NCI-H460 lung,3.45 µM
same,TGI,NCI-H460 lung,37.7 µM
same,GI50,NCI-H522 lung,2.13 µM
same,TGI,NCI-H522 lung,15.5 µM
same,GI50,NCI/ADR-RES ovarian,2.14 µM
same,TGI,NCI/ADR-RES ovarian,> 100 µM
same,GI50,OVCAR-3 ovarian,0.736 µM
same,TGI,OVCAR-3 ovarian,13.6 µM
same,GI50,OVCAR-4 ovarian,4.34 µM
same,TGI,OVCAR-4 ovarian,> 100 µM
same,GI50,OVCAR-5 ovarian,4.76 µM
same,TGI,OVCAR-5 ovarian,> 100 µM
same,GI50,OVCAR-8 ovarian,3.17 µM
same,TGI,OVCAR-8 ovarian,79.5 µM
same,GI50,PC-3 prostate,3.18 µM
same,TGI,PC-3 prostate,> 100 µM
same,GI50,RPMI-8226 leukemia,2.52 µM
same,TGI,RPMI-8226 leukemia,10.2 µM
same,GI50,RXF 393 renal,2.81 µM
same,TGI,RXF 393 renal,9.35 µM
same,GI50,SF-268 CNS,3.43 µM
same,TGI,SF-268 CNS,> 100 µM
same,GI50,SF-295 CNS,4.52 µM
same,TGI,SF-295 CNS,85.5 µM
same,GI50,SF-539 CNS,1.16 µM
same,TGI,SF-539 CNS,3.18 µM
same,GI50,SK-MEL-2 melanoma,2.25 µM
same,TGI,SK-MEL-2 melanoma,7.68 µM
same,GI50,SK-MEL-28 melanoma,4.75 µM
same,TGI,SK-MEL-28 melanoma,> 100 µM
same,GI50,SK-MEL-5 melanoma,2.93 µM
same,TGI,SK-MEL-5 melanoma,13.3 µM
same,GI50,SK-OV-3 ovarian,2.95 µM
same,TGI,SK-OV-3 ovarian,9.36 µM
same,GI50,SN12C renal,3.83 µM
same,TGI,SN12C renal,41.8 µM
same,GI50,SNB-19 CNS,6.62 µM
same,TGI,SNB-19 CNS,> 100 µM
same,GI50,SNB-75 CNS,1.9 µM
same,TGI,SNB-75 CNS,> 100 µM
same,GI50,SR leukemia,0.468 µM
same,TGI,SR leukemia,29.6 µM
same,GI50,SW-620 colon,1.35 µM
same,TGI,SW-620 colon,> 100 µM
same,GI50,T-47D breast,5.22 µM
same,TGI,T-47D breast,58 µM
same,GI50,U251 CNS,2.46 µM
same,TGI,U251 CNS,7.32 µM
same,GI50,UACC-257 melanoma,7.08 µM
same,TGI,UACC-257 melanoma,60.8 µM
same,GI50,UACC-62 melanoma,3.55 µM
same,TGI,UACC-62 melanoma,25.2 µM
same,GI50,UO-31 renal,3.45 µM
same,TGI,UO-31 renal,> 100 µM
